Results: PubChem BioAssay (NCI)
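Growth conditions: 96-well plates. Treatment: test compound, 48 hours, 5 concentrations. Analysis: linear interpolation between bracketing concentrations; unreached endpoints set to highest concentration. The concentration for 50% growth inhibition is given as GI50. Definition used: TGI = concentration required for complete inhibition of growth.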

Experiments:
Assay in all cases: growth of human tumour cells (NCI), 48 h; in the data active means GI50 below about 0.43 µM; inactive means the rest
[1] = system: NCI-H460 lung
[2] = system: NCI-H522 lung
[3] = system: NCI/ADR-RES ovarian
[4] = system: OVCAR-3 ovarian
[5] = system: OVCAR-4 ovarian
[6] = system: OVCAR-5 ovarian
[7] = system: OVCAR-8 ovarian
[8] = system: PC-3 prostate
[9] = system: RPMI-8226 leukemia
[10] = system: RXF 393 renal
[11] = system: SF-268 CNS
[12] = system: SF-295 CNS
[13] = system: SF-539 CNS
[14] = system: SK-MEL-2 melanoma
[15] = system: SK-MEL-28 melanoma
[16] = system: SK-MEL-5 melanoma
[17] = system: SK-OV-3 ovarian
[18] = system: SN12C renal
[19] = system: SNB-19 CNS
[20] = system: SNB-75 CNS
[21] = system: SR leukemia
[22] = system: SW-620 colon
[23] = system: T-47D breast
[24] = system: TK-10 renal
[25] = system: U251 CNS
[26] = system: UACC-257 melanoma
[27] = system: UACC-62 melanoma
[28] = system: UO-31 renal

O=C(Nc1ccccc1OC(=O)c1ccccc1)c1ccccc1
22.2 µM: TGI [4]
> 100 µM: TGI [3] | TGI [5] | TGI [6] | TGI [7] | TGI [8] | TGI [9] | TGI [10] | TGI [11] | TGI [13] | TGI [14] | TGI [15] | TGI [16] | TGI [17] | TGI [18] | TGI [19] | TGI [20] | TGI [21] | TGI [22] | TGI [23] | TGI [24] | TGI [25] | TGI [26] | TGI [27] | TGI [28]
inactive: GI50 [1] 3.26 µM | GI50 [2] 11.2 µM | GI50 [3] 19.2 µM | GI50 [4] 3.94 µM | GI50 [5] 18.7 µM | GI50 [6] 51.5 µM | GI50 [7] 6.35 µM | GI50 [8] 6.11 µM | GI50 [9] 38.6 µM | GI50 [10] 50.9 µM | GI50 [11] 3.98 µM | GI50 [12] 2.47 µM | GI50 [13] 22.8 µM | GI50 [14] 51.1 µM | GI50 [15] > 100 µM | GI50 [16] 31.5 µM | GI50 [17] 33.6 µM | GI50 [18] 28.1 µM | GI50 [19] 25.1 µM | GI50 [20] 7.72 µM | GI50 [21] 3.12 µM | GI50 [22] 4.25 µM | GI50 [23] 41.9 µM | GI50 [24] 31.5 µM | GI50 [25] 6.35 µM | GI50 [26] 35.1 µM | GI50 [27] 64.8 µM | GI50 [28] 13.8 µM
77.9 µM: TGI [2]
8.03 µM: TGI [12]
15.2 µM: TGI [1]
